Experimental findings from ChEMBL document CHEMBL1128095, “3,4-diarylthiophenes are selective COX-2 inhibitors” (Bioorg Med Chem Lett, 1995) are described below.

For one test, the system named is Rattus norvegicus. Briefly: Compound was tested for its ability to inhibit carrageenan rat foot edema at 10 mg/kg dose. The class given is functional.
Test [1] deals with Prostaglandin G/H synthase 1 (Homo sapiens, UniProt P23219). Kind of test: Inhibitory activity against human recombinant Prostaglandin G/H synthase 1.
Sequence of Prostaglandin G/H synthase 1 (P23219 whole entry): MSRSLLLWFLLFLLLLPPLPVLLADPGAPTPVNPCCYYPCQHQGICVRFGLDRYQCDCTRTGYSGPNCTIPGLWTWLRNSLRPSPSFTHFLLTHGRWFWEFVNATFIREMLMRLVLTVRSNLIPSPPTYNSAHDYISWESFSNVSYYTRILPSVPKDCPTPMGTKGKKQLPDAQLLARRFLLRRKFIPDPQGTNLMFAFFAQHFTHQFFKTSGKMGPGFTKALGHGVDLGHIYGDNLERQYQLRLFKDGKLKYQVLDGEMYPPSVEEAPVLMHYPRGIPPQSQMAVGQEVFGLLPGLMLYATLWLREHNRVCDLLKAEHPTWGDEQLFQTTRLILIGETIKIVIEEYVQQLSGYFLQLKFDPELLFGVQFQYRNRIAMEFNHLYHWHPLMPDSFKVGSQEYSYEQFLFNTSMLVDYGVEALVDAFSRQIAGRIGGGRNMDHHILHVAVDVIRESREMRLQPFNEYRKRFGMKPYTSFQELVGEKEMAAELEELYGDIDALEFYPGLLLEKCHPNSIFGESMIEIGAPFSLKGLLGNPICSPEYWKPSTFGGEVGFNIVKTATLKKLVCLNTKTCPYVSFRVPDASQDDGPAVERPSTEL
For test [2], the target named is T1, Prostaglandin G/H synthase 2 (Homo sapiens, UniProt P35354).
T1 sequence (P35354 whole entry): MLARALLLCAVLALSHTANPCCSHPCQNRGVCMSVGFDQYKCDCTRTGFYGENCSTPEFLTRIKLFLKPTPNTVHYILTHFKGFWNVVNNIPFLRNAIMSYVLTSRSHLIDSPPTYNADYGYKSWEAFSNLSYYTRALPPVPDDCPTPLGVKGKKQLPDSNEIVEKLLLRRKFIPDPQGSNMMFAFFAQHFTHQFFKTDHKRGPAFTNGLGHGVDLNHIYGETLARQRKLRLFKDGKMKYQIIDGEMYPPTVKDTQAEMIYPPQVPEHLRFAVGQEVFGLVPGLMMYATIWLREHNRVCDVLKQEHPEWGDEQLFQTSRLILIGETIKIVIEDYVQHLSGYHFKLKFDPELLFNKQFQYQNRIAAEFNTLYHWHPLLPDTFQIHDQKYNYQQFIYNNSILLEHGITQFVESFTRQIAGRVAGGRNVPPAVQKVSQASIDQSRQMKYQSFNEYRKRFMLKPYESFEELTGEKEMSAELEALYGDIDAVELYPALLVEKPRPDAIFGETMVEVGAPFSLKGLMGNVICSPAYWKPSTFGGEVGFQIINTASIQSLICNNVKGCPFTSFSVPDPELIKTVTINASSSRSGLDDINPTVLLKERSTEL
Description: Inhibitory activity against human recombinant Prostaglandin G/H synthase 2

SMILES strings stand for the structures. Some results are limits rather than exact numbers.

As to `CS(=O)(=O)c1ccc(-c2cc(Br)sc2-c2ccc(F)cc2)cc1` [DUP-697], the inhibition in vivo at 10 mg/kg with Rattus norvegicus was determined as 57%.

In the test with Rattus norvegicus, `CS(=O)(=O)c1ccc(-c2csc(Br)c2-c2ccc(F)cc2)cc1` displayed an inhibition in vivo at 10 mg/kg of 30%. The IC50 in test [1] is 5.2 µM.

With `NS(=O)(=O)c1ccc(-c2cscc2-c2ccc(F)cc2)cc1`, the IC50 in test [2] turned out to be 0.008 µM; in test [1], 1.8 µM. In the test with Rattus norvegicus, this compound displayed an inhibition in vivo at 10 mg/kg of 46.5%.

Take `CS(=O)(=O)c1ccc(-c2c(-c3ccc(F)cc3)csc2Br)cc1`: the IC50 in test [2] and in test [1] was > 100 µM each time.

With `COc1ccc(-c2cscc2-c2ccc(S(C)(=O)=O)cc2)cc1`, the figures for the IC50 in test [2] and in test [1] were 0.05 µM and 0.9 µM, respectively.

Consider `COc1ccc(-c2cscc2-c2ccc(S(C)(=O)=O)cc2)cc1F`, for which the IC50 in test [2] was 0.03 µM; in test [1] it was > 100 µM.

As for `CS(=O)(=O)c1ccc(-c2c(Br)sc(Br)c2-c2ccc(F)cc2)cc1`, the results for the IC50 in test [2] and in test [1] were 0.7 µM and > 1000 µM, respectively.

Take `CS(=O)(=O)c1ccc(-c2cscc2-c2ccc(F)cc2)cc1`: the figures for the IC50 in test [2] and in test [1] were 0.08 µM and > 1000 µM, respectively. In the test on Rattus norvegicus, this compound displayed an inhibition in vivo at 10 mg/kg of 33%.

`COc1ccc(-c2cscc2-c2ccc(S(N)(=O)=O)cc2)cc1F`: the IC50 in test [2] was 0.009 µM; in test [1], 10 µM.
